Measurements as given in article PMC9257445 (Journal of Pharmaceutical Analysis, 2021).

Target: T1, tumor necrosis factor receptor type 1 (TNF-R1) (Homo sapiens, UniProt P19438)
T1 sequence (P19438 30-455): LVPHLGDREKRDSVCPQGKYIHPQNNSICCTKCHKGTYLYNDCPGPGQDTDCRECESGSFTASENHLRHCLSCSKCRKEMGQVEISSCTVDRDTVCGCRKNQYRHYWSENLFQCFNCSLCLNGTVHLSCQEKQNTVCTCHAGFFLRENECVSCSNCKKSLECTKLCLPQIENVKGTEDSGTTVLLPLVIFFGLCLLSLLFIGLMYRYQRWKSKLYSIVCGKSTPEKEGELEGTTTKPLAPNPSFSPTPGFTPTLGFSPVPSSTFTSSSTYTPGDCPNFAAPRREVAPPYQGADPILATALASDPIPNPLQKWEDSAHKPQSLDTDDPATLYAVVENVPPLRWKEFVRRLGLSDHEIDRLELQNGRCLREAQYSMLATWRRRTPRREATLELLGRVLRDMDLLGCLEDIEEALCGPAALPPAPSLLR
Assay: SPR
Format: binding

**Q.** `COc1ccc(C(C)=O)c(O)c1` [paeonol] was tested. Which Kd did it give?
**A.** 11.8 µM
